Test results from US11440923B2, “Substituted macrocyclic indole derivatives” (Bayer Aktiengesellschaft, priority 2017, dated 2022).
Structures can show the parent of a compound that is named as a salt.

What follows are molecules tested against MCL-1 (Homo sapiens (Human), UniProt Q07820, K194A/K197A/R201A) (assay: Protein-protein interaction assay MCL-1/Noxa BH3 peptide (MCL-1 assay, TR-FRET)). Conditions: MCL-1 Assay IC50 (median).
Format: binding
Summary of the method: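 Competition TR-FRET with MBP-MCL-1 (aa 173-321) at 1 nM final and biotinylated Noxa BH3 peptide, pH 7 Tris buffer. Compounds pre-incubated 10 min at 22° C., then 1 h at 22° C. and overnight at 4° C. 665/620 nm ratio normalized to DMSO; IC50 from 4-parameter fit.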

Chain of MCL-1 (Q07820 whole entry, looked up, stated change not applied): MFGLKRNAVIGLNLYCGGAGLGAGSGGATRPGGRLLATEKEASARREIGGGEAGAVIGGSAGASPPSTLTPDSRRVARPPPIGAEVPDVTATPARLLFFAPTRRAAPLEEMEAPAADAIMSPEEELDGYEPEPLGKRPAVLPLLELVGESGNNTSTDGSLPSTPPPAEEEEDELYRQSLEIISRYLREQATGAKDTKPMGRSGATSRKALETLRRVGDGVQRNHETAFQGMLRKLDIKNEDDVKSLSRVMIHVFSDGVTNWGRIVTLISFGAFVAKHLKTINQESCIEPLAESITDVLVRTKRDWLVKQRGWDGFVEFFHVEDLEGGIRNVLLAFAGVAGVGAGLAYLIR

IC50 | SMILES
51 nM | Cc1c2c(nn1C)C(CCN1CCOCC1)OCCCCn1c(C(=O)O)c(CCCOc3cccc4ccccc34)c3cccc-2c31 (single isomer, unassigned; stereoisomer 2) [Example 6, 2,3-dimethyl-15-[2-(morpholin-4-yl)ethyl]-7-[3-(naphthalen-1-yloxy)propyl]-2,10,11,12,13,15-hexahydropyrazolo[4′,3′:9,10][1,6]oxazacycloundecino[8,7,6-hi]indole-8-carboxylic Acid (Stereoisomer 2)]
3.2 nM | CCc1c2c(nn1C)C(Cc1ccccc1)OCCCCn1c(C(=O)O)c(CCCOc3cccc4cc(F)ccc34)c3ccc(Cl)c-2c31 (racemic) [Example 92, (rac)-(rac-15)-benzyl-4-chloro-3-ethyl-7-{3-[(6-fluoro-1-naphthyl)oxy]propyl}-2-methyl-2,10,11,12,13,15-hexahydropyrazolo[4′,3′:9,10][1,6]oxazacycloundecino[8,7,6-hi]indole-8-carboxylic Acid]
22 nM | Cc1c2c(nn1C)C(C)OCCCCn1c(C(=O)O)c(CCCOc3cccc4ccccc34)c3cccc-2c31 (single isomer, unassigned; stereoisomer 2) [Example 3, 2,3,15-trimethyl-7-[3-(naphthalen-1-yloxy)propyl]-2,10,11,12,13,15-hexahydropyrazolo[4′,3′:9,10][1,6]oxazacycloundecino[8,7,6-hi]indole-8-carboxylic Acid Trifluoroacetic Acid Salt (Stereoisomer 2)]
1.3 nM | CCc1c2c(nn1C)C(C1CC1)OCCCCn1c(C(=O)O)c(CCCOc3cccc4cc(F)ccc34)c3ccc(Cl)c-2c31 (racemic) [Example 38, (rac)-4-chloro-(15-rac)-cyclopropyl-3-ethyl-7-{3-[(6-fluoronaphthalen-1-yl)oxy]propyl}-2-methyl-2,10,11,12,13,15-hexahydropyrazolo[4′,3′:9,10][1,6]oxazacycloundecino[8,7,6-hi]indole-8-carboxylic Acid]
0.39 nM | CCc1c2c(nn1C)C(CCO)OCCCCn1c(C(=O)O)c(CCCOc3cccc4cc(F)ccc34)c3ccc(Cl)c-2c31 (racemic) [Example 44, (rac)-4-chloro-3-ethyl-7-{3-[(6-fluoronaphthalen-1-yl)oxy]propyl}-(15-rac)-(2-hydroxyethyl)-2-methyl-2,10,11,12,13,15-hexahydropyrazolo[4′,3′:9,10][1,6]oxazacycloundecino[8,7,6-hi]indole-8-carboxylic Acid]
1.3 nM | CCc1c2c(nn1C)C(CCCN1CCOCC1)OCCCCn1c(C(=O)O)c(CCCOc3cccc4cc(F)ccc34)c3ccc(Cl)c-2c31 (racemic) [Example 65, (rac)-4-chloro-3-ethyl-7-{3-[(6-fluoronaphthalen-1-yl)oxy]propyl}-2-methyl-(15-rac)-[3-(morpholin-4-yl)propyl]-2,10,11,12,13,15-hexahydropyrazolo[4′,3′:9,10][1,6]oxazacycloundecino[8,7,6-hi]indole-8-carboxylic Acid]
0.88 nM | CCc1c2c(nn1C)C(CC(C)(C)O)OCCCCn1c(C(=O)O)c(CCCOc3cccc4cc(F)ccc34)c3ccc(Cl)c-2c31 (racemic) [Example 52, (rac)-4-chloro-3-ethyl-7-{3-[(6-fluoronaphthalen-1-yl)oxy]propyl}-(15-rac)-(2-hydroxy-2-methylpropyl)-2-methyl-2,10,11,12,13,15-hexahydropyrazolo[4′,3′:9,10][1,6]oxazacycloundecino[8,7,6-hi]indole-8-carboxylic Acid]
0.48 nM | COCCC1OCCCCn2c(C(=O)O)c(CCCOc3cccc4ccccc34)c3ccc(Cl)c(c32)-c2c1nn(C)c2C (racemic) [Example 37, (rac)-4-chloro-(15-rac)-(2-methoxyethyl)-2,3-dimethyl-7-{3-[(naphthalen-1-yl)oxy]propyl}-2,10,11,12,13,15-hexahydropyrazolo[4′,3′:9,10][1,6]oxazacycloundecino[8,7,6-hi]indole-8-carboxylic Acid]
0.85 nM | CCc1c2c(nn1C)C(CCN1CCOCC1)OCCCCn1c(C(=O)O)c(CCCOc3cccc4cc(F)ccc34)c3ccc(F)c-2c31 (racemic) [Example 49, (rac)-3-Ethyl-4-fluoro-7-{3-[(6-fluoronaphthalen-1-yl)oxy]propyl}-2-methyl-(15-rac)-[2-(morpholin-4-yl)ethyl]-2,10,11,12,13,15-hexahydropyrazolo[4′,3′:9,10][1,6]oxazacycloundecino[8,7,6-hi]indole-8-carboxylic Acid]
2.2 nM | Cc1c2c(nn1C)C(C)OCCCCn1c(C(=O)O)c(CCCOc3cccc4ccccc34)c3cccc-2c31 (racemic) [Example 1, (rac)-2,3,15-trimethyl-7-[3-(naphthalen-1-yloxy)propyl]-2,10,11,12,13,15-hexahydropyrazolo[4′,3′:9,10][1,6]oxazacycloundecino[8,7,6-hi]indole-8-carboxylic Acid (Mixture of Stereoisomers)]
1 nM | CCc1c2c(nn1C)C(CCC(C)(C)O)OCCCCn1c(C(=O)O)c(CCCOc3cccc4cc(F)ccc34)c3ccc(Cl)c-2c31 (racemic) [Example 74, (rac)-4-chloro-3-ethyl-7-{3-[(6-fluoronaphthalen-1-yl)oxy]propyl}-(15-rac)-(3-hydroxy-3-methylbutyl)-2-methyl-2,10,11,12,13,15-hexahydropyrazolo[4′,3′:9,10][1,6]oxazacycloundecino[8,7,6-hi]indole-8-carboxylic Acid]
1.6 nM | Cc1c2c(nn1C)C(CCN1CCOCC1)OCCCCn1c(C(=O)O)c(CCCOc3cccc4ccccc34)c3ccc(Cl)c-2c31 (racemic) [Example 13, (rac)-4-chloro-2,3-dimethyl-15-[2-(morpholin-4-yl)ethyl]-7-{3-[(naphthalen-1-yl)oxy]propyl}-2,10,11,12,13,15-hexahydropyrazolo[4′,3′:9,10][1,6]oxazacycloundecino[8,7,6-hi]indole-8-carboxylic Acid]

The remaining lines, values behind:

SMILES | IC50
CCC1OCCCCn2c(C(=O)O)c(CCCOc3cccc4ccccc34)c3ccc(Cl)c(c32)-c2c1nn(C)c2C (racemic) [Example 25, (rac)-4-chloro-15-ethyl-2,3-dimethyl-7-{3-[(naphthalen-1-yl)oxy]propyl}-2,10,11,12,13,15-hexahydropyrazolo[4′,3′:9,10][1,6]oxazacycloundecino[8,7,6-hi]indole-8-carboxylic Acid] | 1.9 nM
CCc1c2c(nn1C)C(CCN1CCOCC1)OCCCCn1c(C(=O)O)c(CCCOc3cccc4cc(F)ccc34)c3ccc(Cl)c-2c31 (racemic) [Example 22, (rac)-4-chloro-3-ethyl-7-{3-[(6-fluoronaphthalen-1-yl)oxy]propyl}-2-methyl-15-[2-(morpholin-4-yl)ethyl]-2,10,11,12,13,15-hexahydropyrazolo[4′,3′:9,10][1,6]oxazacycloundecino[8,7,6-hi]indole-8-carboxylic Acid] | 1.5 nM
Cc1c2c(nn1C)C(CCN1CCOCC1)OCCCCn1c(C(=O)O)c(CCCOc3cccc4cc(F)ccc34)c3ccc(F)c-2c31 (racemic) [Example 19, (rac)-4-fluoro-7-{3-[(6-fluoronaphthalen-1-yl)oxy]propyl}-2,3-dimethyl-15-[2-(morpholin-4-yl)ethyl]-2,10,11,12,13,15-hexahydropyrazolo[4′,3′:9,10][1,6]oxazacycloundecino[8,7,6-hi]indole-8-carboxylic Acid] | 1.6 nM
CCc1c2c(nn1C)C(CCC1CCOCC1)OCCCCn1c(C(=O)O)c(CCCOc3cccc4cc(F)ccc34)c3ccc(Cl)c-2c31 (single isomer, unassigned; enantiomer 1) [Example 61, 4-chloro-3-ethyl-7-{3-[(6-fluoronaphthalen-1-yl)oxy]propyl}-2-methyl-15-[2-(oxan-4-yl)ethyl]-2,10,11,12,13,15-hexahydropyrazolo[4′,3′:9,10][1,6]oxazacycloundecino[8,7,6-hi]indole-8-carboxylic Acid (Enantiomer 1)] | 0.46 nM
CCc1c2c(nn1C)C(CCOC)OCCCCn1c(C(=O)O)c(CCCOc3cccc4cc(F)ccc34)c3ccc(Cl)c-2c31 (racemic) [Example 41, (rac)-4-chloro-3-ethyl-7-{3-[(6-fluoronaphthalen-1-yl)oxy]propyl}-(15-rac)-(2-methoxyethyl)-2-methyl-2,10,11,12,13,15-hexahydropyrazolo[4′,3′:9,10][1,6]oxazacycloundecino[8,7,6-hi]indole-8-carboxylic Acid] | 0.52 nM
Cc1c2c(nn1C)C(CCN1CCOCC1)OCCCCn1c(C(=O)O)c(CCCOc3cccc4cc(F)ccc34)c3ccc(F)c-2c31 (single isomer, unassigned; enantiomer 2) [Example 21, 4-fluoro-7-{3-[(6-fluoronaphthalen-1-yl)oxy]propyl}-2,3-dimethyl-15-[2-(morpholin-4-yl)ethyl]-2,10,11,12,13,15-hexahydropyrazolo[4′,3′:9,10][1,6]oxazacycloundecino[8,7,6-hi]indole-8-carboxylic Acid (Enantiomer 2)] | 160 nM
Cc1c2c(nn1C)C(CCN1CCOCC1)OCCCCn1c(C(=O)O)c(CCCOc3cccc4cc(F)ccc34)c3ccc(Cl)c-2c31 (racemic) [Example 16, (rac)-4-chloro-7-{3-[(6-fluoronaphthalen-1-yl)oxy]propyl}-2,3-dimethyl-15-[2-(morpholin-4-yl)ethyl]-2,10,11,12,13,15-hexahydropyrazolo[4′,3′:9,10][1,6]oxazacycloundecino[8,7,6-hi]indole-8-carboxylic Acid] | 2 nM
CCc1c2c(nn1C)C(CCC1CCOCC1)OCCCCn1c(C(=O)O)c(CCCOc3cccc4cc(F)ccc34)c3ccc(Cl)c-2c31 (single isomer, unassigned; enantiomer 2) [Example 62, (−)-4-chloro-3-ethyl-7-{3-[(6-fluoronaphthalen-1-yl)oxy]propyl}-2-methyl-15-[2-(oxan-4-yl)ethyl]-2,10,11,12,13,15-hexahydropyrazolo[4′,3′:9,10][1,6]oxazacycloundecino[8,7,6-hi]indole-8-carboxylic Acid (Enantiomer 2)] | 120 nM
